How the values were obtained:
[1] = system: H1703 tumor cell line; test: ATP release from squamous NSCLC H1703 tumor cells after chemotherapy (CellTiter-Glo); type: cell-based; settings: culture supernatant, FIG. 2
Procedure: This experiment aimed as studying ATP release from squamous NSCLC tumor cells following chemotherapy treatment. The squamous NSCLC H1703 tumor cell line was incubated separately with different chemotherapies. The measurement of ATP release was performed 24 h after Cisplatin treatment, 72 h after Carboplatin, 60 h after Oxaliplatin, 48 h after Pemetrexed, 48 h after Gemcitabine, 72 h after 5-FU, 24 h after Paclitaxel and 40 h after Docetaxel. Extracellular ATP release in the culture supernatant was measured with a luminescent-based assay (CellTiter-Glo®) and expressed in Luminescence Arbitrary Unit (AU). Means+/−SD.
Result are shown in FIG. 2, showing ATP release from H1703 tumor cell line (sqNSCLC) following the treatment with different chemotherapies, cisplatin, carboplatin, oxaliplatin, pemetrexed, gemcitabine, 5-Fu, paclitaxel and docetaxel.

[2] = molecular target: T1, recombinant human CD39 protein (huCD39) (Homo sapiens, UniProt P49961); test: eATP release by H1703 (CD39-) cells incubated with recombinant huCD39, with or without IPH5201, then docetaxel; type: cell-based; settings: H1703 (CD39-) cells; docetaxel 0.1 μM; 40 h; FIG. 3A
T1 sequence (P49961 38-478 limits assumed): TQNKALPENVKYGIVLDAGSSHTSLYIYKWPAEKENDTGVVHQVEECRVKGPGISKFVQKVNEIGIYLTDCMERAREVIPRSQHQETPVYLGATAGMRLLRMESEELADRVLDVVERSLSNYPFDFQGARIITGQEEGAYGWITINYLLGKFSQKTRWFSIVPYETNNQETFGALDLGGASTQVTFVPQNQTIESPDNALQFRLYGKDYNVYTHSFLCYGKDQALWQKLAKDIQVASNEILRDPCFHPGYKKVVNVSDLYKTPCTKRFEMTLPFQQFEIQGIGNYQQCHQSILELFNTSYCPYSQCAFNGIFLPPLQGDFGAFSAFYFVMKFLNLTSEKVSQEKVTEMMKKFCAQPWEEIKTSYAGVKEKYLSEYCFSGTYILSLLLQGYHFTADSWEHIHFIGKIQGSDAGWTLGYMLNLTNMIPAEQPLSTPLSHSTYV
Procedure: H1703 (CD39−) cells were incubated with recombinant human CD39 protein (huCD39) (400 ng/ml) to mimic soluble CD39 in tumor microenvironment with or without IPH5201 (humanized anti-CD39 antibody having the respective heavy and light chain amino acid sequences of SEQ ID NOS: 10 and 11) at 10 μg/mL and then treated with docetaxel (0.1 μM). The measure of extracellular ATP (eATP) release was performed 40 h after docetaxel treatment.
(§1) OAW42 (CD39+) cells were incubated with 10 or 50 μg/mL of IPH5201 and treated with a dose range of docetaxel. The measure of eATP release was performed 30 h after docetaxel treatment. eATP was measured in the cell culture supernatant with a luminescent-based assay (CellTiter-Glo®) and expressed in Luminescence Arbitrary Unit (AU). Means+/−SD.

[3] = system: OAW42 (CD39+) cells; test: eATP release in OAW42 (CD39+) cells with IPH5201 and docetaxel; type: cell-based; settings: docetaxel dose range, 30 h, FIG. 3B
Procedure: as §1

[4] = Phase 1 study of IPH5201 +/- durvalumab in advanced solid tumours: safety; type: in vivo; settings: of 19 patients given IPH5201+durvalumab (1500 mg Q3W)
Procedure: A first-in-human, multicentre, non-randomised, open-label, phase 1 study was conducted in order to assess the safety, efficacy, pharmacokinetics (PK) and pharmacodynamics (PD) of IPH5201±durvalumab (Imfinzi™) in patients with advanced solid tumours. The study consisted of two consecutive dose-escalation parts: • Part 1: Ascending doses of IPH5201 (100, 300, 1000 and 3000 mg) every 3 weeks (Q3W). • Part 2: Ascending doses of IPH5201 (300, 1000 and 3000 mg) and 1500 mg durvalumab Q3W.
PD cohorts enrolled patients with advanced squamous cell lung carcinoma or advanced pancreatic ductal adenocarcinoma in the top two dose levels of Parts 1 and 2. Primary endpoints were safety and tolerability. Key secondary endpoints included preliminary antitumour activity measured by objective response and disease control per RECIST v1.1, PK and immunogenicity. Exploratory endpoints included efficacy measured by duration of response and progression-free survival (PFS) per RECIST v1.1, overall survival and assessment of biomarkers.
Key inclusion criteria were: • Adults aged ≥18 years. • Histologically or cytologically confirmed advanced solid tumours. • At least one measurable lesion per RECIST v1.1. • Refractoriness to standard therapy or disease for which no standard therapy exists. • Eastern Cooperative Oncology Group Performance Status of 0 or 1. • Archival or fresh tumour sample. • Key exclusion criteria were: • Previous treatment with any agents targeting CD73, CD39, or adenosine receptors. • Treatment with any conventional or investigational anticancer therapy within 21 days of the first planned dose. • Active or prior autoimmune or inflammatory disorders within the past 5 years. • Cardiac and vascular criteria including presence of acute coronary syndrome or thromboembolic events within 6 months prior to enrolment, congestive heart failure, serious cardiac arrhythmia requiring medication, or uncontrolled hypertension. • Untreated metastases to the central nervous system.
Overall, 57 patients received treatment (IPH5201, n=38; IPH5201+durvalumab, n=19). […] Treatment-emergent adverse events (TEAEs) occurred in 96.5% of patients; 40.4% had grade ≥3 TEAEs. […] Treatment-related adverse events (TRAEs) occurred in 66.7% of patients (37/57 (64.9%) related to IPH5201; 11/19 (57.9%) related to durvalumab). […] The most common TRAEs were infusion-related reactions (21.1%), fatigue (17.5%), nausea, arthralgia, tumour pain and pruritus (8.8% each). […] Maximum tolerated dose (MTD) was not reached.

[5] = system: MC38 cancer cell line; test: MC38 tumor growth in huCD39KI mice (gemcitabine +/- anti-PD-L1 +/- molPH5201); type: in vivo, human CD39 knock-in (huCD39KI) mice; settings: for tumor growth compared to the control: p<0.001
Procedure: In vivo experiments were performed in human CD39 knock-in (huCD39KI) mice, genetically modified to express human CD39 in place of its murine counterpart mouse CD39. These mice were sub-cutaneously (s.c.) engrafted with the MC38 cancer cell line. Mice bearing established tumors were dosed with isotype control (IC) antibodies, anti-human CD39 antibody (molPH5201, described above), gemcitabine chemotherapy and anti-mouse PD-L1 antibody (an antibody that binds murine PD-L1 having an Fc domain with amino acid substitutions to eliminate binding to mouse Fcγ receptors.
Male and female huCD39KI mice were engrafted subcutaneously (s.c.) with 1×10^6 MC38 cancer cells. Treatments were initiated after mouse randomization. Mice were treated twice a week for two weeks with gemcitabine (25 mg/kg) or PBS (at day 8, 11, 15 and 18 after cell engraftment) and once a week for four weeks with either anti-human CD39 antibody (molPH5201) or the corresponding isotype control (IC) antibody (400 μg/mouse).
Randomization of mice into four groups was performed on day 7 post tumor cell engraftment, at a mean tumor volume of 72 mm^3±27 mm^3 with individual tumor volumes comprised between 37 and 130 mm^3.
(§2) Male and female huCD39KI mice were engrafted s.c. with 1×10^6 MC38. Treatments were initiated after mouse randomization. Mice were treated twice a week for two weeks with gemcitabine (25 mg/kg) or PBS, twice a week for three weeks with either anti-mouse PD-L1 antibody or the corresponding IC antibody (200 μg/mouse) and once a week for four or five weeks depending on the experiment with either anti-human CD39 antibody (molPH5201) or the corresponding IC antibody (400 μg/mouse). Mouse randomization into five groups was performed on day 7 post tumor cell engraftment at a mean tumor volume of 62 mm^3±23 mm^3 with individual tumor volumes comprised between 31 and 117 mm^3.
as §2, with “As in Experiment 1, male” for “Male”, “64” for “62”, “115” for “117”
as §2, with “As in Experiments 1 and 2, male” for “Male”, “engraftment,” for “engraftment”, “74 mm^3±21” for “62 mm^3±23”, “40” for “31”, “121” for “117”
The three experiments were pooled and results are shown in FIG. 9, showing Tumor growth of MC38 tumor in huCD39KI mice post treatment with gemcitabine+/−anti-PD-L1+/−molPH5201. MC38 tumor-bearing huCD39KI mice were randomized on day 7 and then treated as indicated with 25 mg/kg ip of gemcitabine or PBS, 200 μg ip of anti-mouse PD-L1 antibody or corresponding isotype control antibody and with 400 μg iv of molPH5201 or corresponding IC antibody. Graphs show tumor growth in each individual (n=31/group). CR: Complete Response.

Q: Which ATP release ([1]; 24 h after Cisplatin treatment) does the source give for `N.N.[Cl][Pt][Cl]` [cisplatin] here?
A: induced significant ATP release

Q: Which “extracellular ATP (eATP) release” value [2] does the source give for `CC(=O)O[C@@]12CO[C@@H]1C[C@H](O)[C@@]1(C)C(=O)[C@H](O)C3=C(C)[C@@H](OC(=O)[C@H](O)[C@@H](NC(=O)OC(C)(C)C)c4ccccc4)C[C@@](O)([C@@H](OC(=O)c4ccccc4)[C@H]21)C3(C)C` [docetaxel, reference compound] here?
A: induced strong release of eATP

Q: What about the eATP release [3] of the same molecule?
A: at best a modest release of eATP

Q: And the ATP release ([1]; 40 h after Docetaxel)?
A: induced significant ATP release

Q: For durvalumab [reference compound], which “patients with TRAEs related to durvalumab” value [4] is on record?
A: 57.9%

Q: And the “patients with TRAEs related to durvalumab, count” value [4]?
A: 11/19

Q: For `O=C1[O][Pt]2([NH][C@@H]3CCCC[C@H]3[NH]2)[O]C1=O` [oxaliplatin], which ATP release ([1]; 60 h after Oxaliplatin) is on record?
A: induced significant ATP release

Q: Which ATP release ([1]; 72 h after 5-FU) does the source give for `O=c1[nH]cc(F)c(=O)[nH]1` [5-Fu, 5-FU] here?
A: induced significant ATP release

Q: For `CC(=O)O[C@H]1C(=O)[C@@]2(C)[C@H]([C@H](OC(=O)c3ccccc3)[C@]3(O)C[C@H](OC(=O)[C@H](O)[C@@H](NC(=O)c4ccccc4)c4ccccc4)C(C)=C1C3(C)C)[C@]1(OC(C)=O)CO[C@@H]1C[C@@H]2O` [paclitaxel], which ATP release ([1]; 24 h after Paclitaxel) is on record?
A: induced significant ATP release

Q: Which “tumor growth compared to the control” value ([5]; Experiment 1 (FIG. 6)) does the source give for `Nc1ccn([C@@H]2O[C@H](CO)[C@@H](O)C2(F)F)c(=O)n1` [gemcitabine, reference compound] here?
A: significantly slowed down tumor growth

Q: What about the “tumor growth compared to the control” value ([5]; Experiment 2 (FIG. 7)) of the same molecule?
A: significantly slowed down tumor growth

Q: What about the “tumor growth compared to the control” value ([5]; Experiment 3 (FIG. 8)) of the same molecule?
A: significantly inhibited tumor growth

Q: What about the “tumor growth compared to the control group” value ([5]; gemcitabine +/- molPH5201 experiment (FIG. 5), gemcitabine 25 mg/kg, molPH5201 400 μg/mouse, p<0.001 where significant) of the same molecule?
A: drastically and significantly slowed down tumor growth

Q: And the ATP release ([1]; 48 h after Gemcitabine)?
A: induced significant ATP release

Q: For `N.N.O=C([O-])C1(C(=O)[O-])CCC1.[Pt+2]` [carboplatin], which ATP release ([1]; 72 h after Carboplatin) is on record?
A: induced significant ATP release

Q: Which ATP release ([1]; 48 h after Pemetrexed) does the source give for `Nc1nc2[nH]cc(CCc3ccc(C(=O)N[C@@H](CCC(=O)O)C(=O)O)cc3)c2c(=O)[nH]1` [pemetrexed] here?
A: induced significant ATP release

Reference: patent publication US20260191954A1, “COMPOSITIONS AND METHODS FOR NEOADJUVANT TREATMENT IN CANCER” (INNATE PHARMA, priority 2022, published 2026)
